From PubChem BioAssay AID1963961 (Molecular Pharmacology Branch, DTP, NCI, 2024)
One block for each molecule: values may come before it.

System: K98450-129-R-PDC multicell spheroids, viability
Assay: Anticancer human tumor K98450-129-R-PDC patient-derived colon adenocarcinoma cell line growth inhibition [PI3K]
Details: for IC50: curve of first compound; for viability, T/C: stronger effect = lower value
Procedure, shortened: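 We assembled tumor spheroids that included a stromal compartment of HUVEC and MSCs, then exposed them to targeted agents alone and together with PI3K pathway inhibitors. Concentration series descended by half-log from clinically achievable Cmax levels. Viability served as the endpoint.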

[1] = second compound 0.0316 µM, first compound 0.0316 µM
[2] = second compound 0.0316 µM, first compound 0.1 µM
[3] = second compound 0.0316 µM, first compound 0.316 µM
[4] = second compound 0.0316 µM, first compound 1 µM
[5] = second compound 0.0316 µM, first compound 3.16 µM
[6] = second compound 0.0316 µM, first compound 10 µM
[7] = second compound 0.1 µM, first compound 0.0316 µM
[8] = second compound 0.1 µM, first compound 0.1 µM
[9] = second compound 0.1 µM, first compound 0.316 µM
[10] = second compound 0.1 µM, first compound 1 µM
[11] = second compound 0.1 µM, first compound 3.16 µM
[12] = second compound 0.1 µM, first compound 10 µM
[13] = second compound 0.316 µM, first compound 0.0316 µM
[14] = second compound 0.316 µM, first compound 0.1 µM
[15] = second compound 0.316 µM, first compound 0.316 µM
[16] = second compound 0.316 µM, first compound 1 µM
[17] = second compound 0.316 µM, first compound 3.16 µM
[18] = second compound 0.316 µM, first compound 10 µM
[19] = second compound 1 µM, first compound 0.0316 µM
[20] = second compound 1 µM, first compound 0.1 µM
[21] = second compound 1 µM, first compound 0.316 µM
[22] = second compound 1 µM, first compound 1 µM
[23] = second compound 1 µM, first compound 3.16 µM
[24] = second compound 1 µM, first compound 10 µM
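Further: spheroids exposed to agents for seven days before read-out.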

IC50 (second compound 0.00316 µM): > 10 µM | IC50 (second compound 0.01 µM): > 10 µM | IC50 (second compound 0.0316 µM): > 10 µM | IC50 (second compound 0.1 µM): 7.85 µM | IC50 (second compound 0.316 µM): 8.33 µM | IC50 (second compound 1 µM): 0.272 µM
SMILES: Cn1nccc1Nc1nccc(-c2ccn(C(CO)c3ccc(Cl)c(F)c3)c(=O)c2)n1 (centres undefined) + COc1c(OCCCN2CCOCC2)ccc2c3n(c(=NC(=O)c4cnc(N)nc4)nc12)CCN3
viability, T/C (second compound 0.00316 µM, first compound 0.0316 µM): 101% | viability, T/C (second compound 0.00316 µM, first compound 0.1 µM): 97.7% | viability, T/C (second compound 0.00316 µM, first compound 0.316 µM): 89.3% | viability, T/C (second compound 0.00316 µM, first compound 1 µM): 88.5% | viability, T/C (second compound 0.00316 µM, first compound 3.16 µM): 93.6% | viability, T/C (second compound 0.00316 µM, first compound 10 µM): 69.2% | viability, T/C (second compound 0.01 µM, first compound 0.0316 µM): 99.1% | viability, T/C (second compound 0.01 µM, first compound 0.1 µM): 82% | viability, T/C (second compound 0.01 µM, first compound 0.316 µM): 79.7% | viability, T/C (second compound 0.01 µM, first compound 1 µM): 79.9% | viability, T/C (second compound 0.01 µM, first compound 3.16 µM): 77.4% | viability, T/C (second compound 0.01 µM, first compound 10 µM): 95.5% | viability, T/C [1]: 80.7% | viability, T/C [2]: 88.6% | viability, T/C [3]: 74.8% | viability, T/C [4]: 94.6% | viability, T/C [5]: 77.3% | viability, T/C [6]: 63.1% | viability, T/C [7]: 65.6% | viability, T/C [8]: 74.8% | viability, T/C [9]: 73.3% | viability, T/C [10]: 75.3% | viability, T/C [11]: 70.2% | viability, T/C [12]: 44.5% | viability, T/C [13]: 63.2% | viability, T/C [14]: 53.7% | viability, T/C [15]: 55.6% | viability, T/C [16]: 61.9% | viability, T/C [17]: 59.7% | viability, T/C [18]: 40.8% | viability, T/C [19]: 54.7% | viability, T/C [20]: 61.5% | viability, T/C [21]: 43.2% | viability, T/C [22]: 43.9% | viability, T/C [23]: 33.4% | viability, T/C [24]: 20.9%

IC50 (second compound 0.0316 µM): > 10 µM | IC50 (second compound 0.1 µM): > 10 µM | IC50 (second compound 0.316 µM): > 10 µM | IC50 (second compound 1 µM): > 10 µM | IC50 (second compound 3.16 µM): 9.63 µM | IC50 (second compound 10 µM): 8.5 µM
SMILES: Cn1ncc(Cl)c1-c1cc(C(=O)NC(CN)Cc2cccc(F)c2)sc1Cl (centres undefined) + CC(Nc1ncnc2nc[nH]c12)c1cc2cccc(Cl)c2c(=O)n1-c1ccccc1
viability, T/C [1]: 88.4% | viability, T/C [2]: 105% | viability, T/C [3]: 102% | viability, T/C [4]: 93.8% | viability, T/C [5]: 98.1% | viability, T/C [6]: 56.9% | viability, T/C [7]: 107% | viability, T/C [8]: 85% | viability, T/C [9]: 96% | viability, T/C [10]: 92.6% | viability, T/C [11]: 98.1% | viability, T/C [12]: 59.8% | viability, T/C [13]: 110% | viability, T/C [14]: 106% | viability, T/C [15]: 92.4% | viability, T/C [16]: 101% | viability, T/C [17]: 99% | viability, T/C [18]: 61.5% | viability, T/C [19]: 95.7% | viability, T/C [20]: 110% | viability, T/C [21]: 101% | viability, T/C [22]: 80.8% | viability, T/C [23]: 96.6% | viability, T/C [24]: 61.2% | viability, T/C (second compound 3.16 µM, first compound 0.0316 µM): 87.3% | viability, T/C (second compound 3.16 µM, first compound 0.1 µM): 94.5% | viability, T/C (second compound 3.16 µM, first compound 0.316 µM): 106% | viability, T/C (second compound 3.16 µM, first compound 1 µM): 96.9% | viability, T/C (second compound 3.16 µM, first compound 3.16 µM): 97% | viability, T/C (second compound 3.16 µM, first compound 10 µM): 48.4% | viability, T/C (second compound 10 µM, first compound 0.0316 µM): 85.1% | viability, T/C (second compound 10 µM, first compound 0.1 µM): 86.1% | viability, T/C (second compound 10 µM, first compound 0.316 µM): 87% | viability, T/C (second compound 10 µM, first compound 1 µM): 94.9% | viability, T/C (second compound 10 µM, first compound 3.16 µM): 89.8% | viability, T/C (second compound 10 µM, first compound 10 µM): 43.7%
